From patent EP1900728A1 (Genecare Research Institute Co., Ltd, priority 2005, dated 2006)
Read-outs that look alike come from different tables or passages of the source.

Key:
[1] = system: ICAM-1 expression in HT-29 cells; assay: Measurement of ICAM-1 expressing activity (TNFα-induced ICAM-1 expression, cell ELISA); assay type: cell-based; settings: Homo sapiens, Table 6, cell activity inhibition test by method (3), read-out: EVALUATION (IC50 class, inhibition of cell activity)
Experimental: Method 2: Measurement of ICAM-1 expressing activity
2.0 x 10^4 HT-29 cells (ATCC) were plated onto a 96-well plate, and the cells were cultured for 48 hours using a McCoy' 5A medium (GIBCO) containing 10% inactivated fetal calf serum. The culture medium was removed, a culture medium containing a compound to be evaluated (final DMSO concentration of 0.5%) was added, and this was incubated at 37°C for 30 minutes. Thirty ng/mL of human TNFα (GIBCO) was added, and this was incubated at 37°C for 4 hours. After washing once with a washing solution (PBS containing 0.05% Tween 20), ice-cooled methanol was added, and this was left on ice for 10 minutes and then fixed. After removing methanol, PBS containing 1% BSA was added, and blocking was performed by letting this stand at room temperature for 30 minutes. Anti-ICAM-1 antibody (Santa Cruz Biotechnology) was added, and this was left to stand at room temperature for 1 hour. After washing with the washing solution, POD-labeled secondary antibody was added, and this was left to stand at room temperature for 30 minutes. This was washed, 100 µL of 100 mM citric acid buffer (pH4.2) containing 1 mM TMBZ and 0.03% H2O2 was added, and this was reacted at room temperature for 15 minutes. The reaction was terminated with 100 µL of 2 N H2SO4, and the absorbance at 450 nm was measured using ARVO-HTS (Perkin Elmer).
When cells are stimulated with TNFα, IκBα is degraded after ubiquitination resulting in the activation of NFκB and the promotion of the expression of adhesion factor ICAM-1. Therefore, the suppression of ICAM-1 expression described above serves as an indicator to determine the effectiveness of the compound in the cells.

[2] = biological target: T1, IκBα ubiquitinating enzyme (SCF complex: ROC1, Cullin1, Skp1, His-TrCP1; with E1, UbcH5b) (Homo sapiens, UniProt P62877+P63208+Q13616+Q9Y297); assay: Measurement of ubiquitinating enzyme activity (IκBα ubiquitination, time-resolved fluorescence with Eu(K)-labeled ubiquitin and XL665-labeled anti-GST antibody); assay type: biochemical
T1 construct: His (polyhistidine); made in house; host or cells: insect cells (baculovirus) for the SCF complex and His-E1; E. coli for His-UBCH5b
Method in brief: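 Human SCF complex with E1 and UbcH5b ubiquitinated GST-IκBα pre-phosphorylated by IKKβ (2 mM ATP, pH 7.4, 1 h, RT), with Eu(K)-ubiquitin, 30 min RT. Stopped with EDTA, XL665 anti-GST added for 2 h; 665/620 nm TR-FRET ratio. % inhibition versus no-compound control and no-SCF blank gave IC50.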

[3] = enzyme activity inhibition test, method (1), Table 5, read-out: EVALUATION

T1 sequence (Q9Y297 whole entry): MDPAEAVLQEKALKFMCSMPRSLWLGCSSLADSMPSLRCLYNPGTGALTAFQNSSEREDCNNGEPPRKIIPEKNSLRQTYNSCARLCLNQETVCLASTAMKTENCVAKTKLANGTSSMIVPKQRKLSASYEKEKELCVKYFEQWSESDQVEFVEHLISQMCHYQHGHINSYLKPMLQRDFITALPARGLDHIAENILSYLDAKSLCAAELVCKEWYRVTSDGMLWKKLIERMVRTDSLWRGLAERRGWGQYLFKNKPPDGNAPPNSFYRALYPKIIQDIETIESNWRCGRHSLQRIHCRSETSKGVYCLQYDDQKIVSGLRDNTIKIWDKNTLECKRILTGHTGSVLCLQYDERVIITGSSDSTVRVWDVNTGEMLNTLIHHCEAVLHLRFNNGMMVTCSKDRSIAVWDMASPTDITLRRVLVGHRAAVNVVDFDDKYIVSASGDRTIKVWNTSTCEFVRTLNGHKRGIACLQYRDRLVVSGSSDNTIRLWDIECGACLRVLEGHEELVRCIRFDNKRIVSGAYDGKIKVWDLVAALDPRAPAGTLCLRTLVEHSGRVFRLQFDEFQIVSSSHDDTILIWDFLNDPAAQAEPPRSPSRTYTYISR
T1 sequence (Q13616 whole entry): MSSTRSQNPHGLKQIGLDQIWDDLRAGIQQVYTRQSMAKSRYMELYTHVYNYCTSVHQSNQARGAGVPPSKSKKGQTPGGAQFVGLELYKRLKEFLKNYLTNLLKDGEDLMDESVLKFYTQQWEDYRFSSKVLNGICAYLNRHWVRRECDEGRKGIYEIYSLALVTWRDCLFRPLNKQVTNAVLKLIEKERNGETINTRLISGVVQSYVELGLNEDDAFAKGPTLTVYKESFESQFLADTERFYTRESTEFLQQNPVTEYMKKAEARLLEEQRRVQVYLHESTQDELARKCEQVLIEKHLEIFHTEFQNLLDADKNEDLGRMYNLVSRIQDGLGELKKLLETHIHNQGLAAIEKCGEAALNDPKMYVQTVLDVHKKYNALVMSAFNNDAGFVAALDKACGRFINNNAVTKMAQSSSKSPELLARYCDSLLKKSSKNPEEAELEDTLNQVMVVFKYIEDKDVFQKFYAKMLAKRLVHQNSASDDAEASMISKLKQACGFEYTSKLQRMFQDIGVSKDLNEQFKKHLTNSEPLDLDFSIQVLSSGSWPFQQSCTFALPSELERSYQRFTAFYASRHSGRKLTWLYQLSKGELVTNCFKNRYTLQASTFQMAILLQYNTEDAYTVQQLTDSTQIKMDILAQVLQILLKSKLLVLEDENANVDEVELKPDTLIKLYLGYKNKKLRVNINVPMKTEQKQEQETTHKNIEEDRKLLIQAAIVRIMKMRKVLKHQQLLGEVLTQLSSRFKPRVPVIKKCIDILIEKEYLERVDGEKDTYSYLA
T1 sequence (P63208 whole entry): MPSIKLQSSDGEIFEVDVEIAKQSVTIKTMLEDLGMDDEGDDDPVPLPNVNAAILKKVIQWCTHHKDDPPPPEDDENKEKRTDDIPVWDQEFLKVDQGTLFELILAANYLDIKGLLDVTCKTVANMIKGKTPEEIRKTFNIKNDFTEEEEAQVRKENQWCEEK
T1 sequence (P62877 whole entry): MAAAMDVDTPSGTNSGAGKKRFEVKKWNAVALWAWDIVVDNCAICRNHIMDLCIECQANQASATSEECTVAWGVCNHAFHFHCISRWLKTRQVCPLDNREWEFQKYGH

IC50 [1] [µM]	IC50 [2, 3] [µM]	SMILES	IC50 [2] [µM]
< 40	< 10	CC1=NN(c2ccc(C(=O)O)cc2)C(=O)/C1=C\c1ccc2c(ccn2CC2CCCCC2)c1 [Compound 498]	–
10 to 20	< 10	CC1=NN(c2ccc(C(=O)O)cc2)C(=O)/C1=C\c1ccc(OCC(=O)N2CCCCC2)cc1 [Compound 533]	–
< 40	< 10	CC1=NN(c2ccc(C(=O)O)cc2)C(=O)/C1=C\c1ccc2c(ccn2Cc2cc(C)on2)c1 [Compound 496]	–
10 to 20	< 10	COCC1=NN(c2ccc(C(=O)O)cc2)C(=O)/C1=C\c1ccc(-n2cccn2)cc1 [Compound 242]	–
10 to 20	< 10	CC1=NN(c2ccc(C(=O)N3CCCC3CO)cc2)C(=O)/C1=C\c1ccc2c(c1)OCCO2 (stereo not shown) [Compound 410]	–
< 40	< 10	CCOC(=O)COc1ccc(/C=C2\C(=O)N(c3ccc(C(=O)O)cc3)N=C2C)cc1 [Compound 540]	–
< 40	< 10	CC1=NN(c2cccc(C(=O)O)c2)C(=O)/C1=C\c1ccc2c(ccn2CC2CC2)c1 [Compound 499]	–
< 40	10 to 20	CCCCC1=NN(c2cccc(C(=O)O)c2)C(=O)/C1=C\c1ccc2c(c1)OCO2 [Compound 473]	–
10 to 20	10 to 20	O=C(O)c1cccc(N2N=C(c3ccoc3)/C(=C/c3ccc(N4CCCC4)cc3)C2=O)c1 [Compound 478]	–
< 40	< 10	O=C(O)c1ccc(N2N=C(C3CC3)/C(=C/c3ccc(-n4cncn4)cc3)C2=O)cc1 [Compound 323]	–
< 40	10 to 20	CC1=NN(c2ccc(C(=O)O)cc2)C(=O)/C1=C\c1ccc(F)cc1 [Compound 351]	–
10 to 20	< 10	CC1=NN(c2ccc(C(=O)O)cc2)C(=O)/C1=C\c1ccc(N2CCN(c3ccc(F)cc3)CC2)cc1 [Compound 448]	–
< 40	< 10	CC1=NN(c2ccc(C(=O)O)cc2)C(=O)/C1=C\c1ccc2c(ccn2C(=O)c2ccccc2)c1 [Compound 528]	–
< 40	< 10	CC1=NN(c2ccc(C(=O)O)cc2)C(=O)/C1=C\c1ccc2c(ccn2Cc2csc(C)n2)c1 [Compound 500]	–
10 to 20	< 10	CC1=NN(c2ccc(C(=O)O)cc2)C(=O)/C1=C\c1ccc(-n2ccnc2)cc1 [Compound 258]	–
< 10	< 10	CC1=NN(c2ccc(C(=O)O)cc2)C(=O)/C1=C\c1ccc(Oc2ccccc2)cc1 [Compound 539]	–
< 40	< 10	O=C(O)c1ccc(N2N=C(C3CC3)/C(=C/c3ccc4[nH]ccc4c3)C2=O)cc1 [Compound 482]	–

Continued, compound first:

SMILES	IC50 [1] [µM]	IC50 [2, 3] [µM]	IC50 [2] [µM]
CC1=NN(c2ccc(S(N)(=O)=O)cc2)C(=O)C1=Cc1ccc(OCc2ccc([N+](=O)[O-])cc2)cc1 [Compound 216]	< 40	–	< 10
COc1cc(/C=C2\C(=O)N(Cc3cccc(O)c3)N=C2C)ccc1O [Compound 128]	< 10	10 to 20	–
COc1ccc(C2=NN(c3ccc(C(=O)O)cc3)C(=O)C2=Cc2ccc(O)c(OC)c2)cc1 [Compound 324]	< 10	–	< 10
COC(=O)N1CCN(c2ccc(C=C3C(=O)N(c4ccc(C(=O)O)cc4)N=C3C3CC3)cc2)CC1 [Compound 315]	< 10	–	< 10
CC1=NN(c2ccc(S(N)(=O)=O)cc2)C(=O)/C1=C\c1ccccc1OS(=O)(=O)c1ccc(C)cc1 [Compound 220]	< 10	10 to 20	–
COCC1=NN(c2ccccc2)C(=O)/C1=C\c1ccc2ccccc2c1 [Compound 2]	10 to 20	10 to 20	–
CCCCC1=NN(c2ccc(C(=O)O)cc2)C(=O)/C1=C\c1ccc(-n2ccnc2)cc1 [Compound 302]	10 to 20	< 10	–
COc1ccccc1-c1ccc(/C=C2\C(=O)N(c3cccc(C(=O)O)c3)N=C2c2ccoc2)o1 [Compound 485]	< 40	< 10	–
CCCCC1=NN(c2ccccc2)C(=O)/C1=C\c1ccc(N2CCN(C(=O)OC)CC2)cc1 [Compound 54]	< 40	10 to 20	–
CC1=NN(c2ccc(S(N)(=O)=O)cc2)C(=O)C1=Cc1cccc2ccccc12 [Compound 119]	< 10	–	10 to 20
CCCNC(=O)COc1ccc(C=C2C(=O)N(c3ccccc3)N=C2C)cc1 [Compound 204]	10 to 20	–	10 to 20
CC1=NN(c2cccc(C(=O)O)c2)C(=O)C1=Cc1cc2ccccc2o1 [Compound 428]	< 40	–	10 to 20
COC(=O)N1CCN(c2ccc(C=C3C(=O)N(c4ccc(C(=O)O)cc4)N=C3c3cccnc3)cc2)CC1 [Compound 307]	< 40	–	10 to 20
O=C(O)c1ccc(N2N=C(c3ccoc3)C(=Cc3ccc(N4CCN(c5ccccc5)CC4)cc3)C2=O)cc1 [Compound 433]	< 10	–	< 10
COc1ccc(C2=NN(c3ccc(C(=O)O)cc3)C(=O)/C2=C\c2ccc(CO)o2)cc1OC [Compound 280]	< 40	10 to 20	–
COCC1=NN(c2ccccc2)C(=O)/C1=C\c1ccc(-c2ccccc2F)o1 [Compound 6]	< 40	10 to 20	–
COc1cc(/C=C2\C(=O)N(c3ccc(S(N)(=O)=O)cc3)N=C2C)ccc1OS(=O)(=O)c1ccc(C)cc1 [Compound 202]	< 40	10 to 20	–
CN1CCN(c2ccc(/C=C3\C(=O)N(c4ccc(C(=O)O)cc4)N=C3Cc3ccccc3)cc2)CC1 [Compound 274]	< 40	10 to 20	–

SMILES	IC50 [1] [µM]	IC50 [2, 3] [µM]	IC50 [2] [µM]
CC1=NN(c2ccc(S(N)(=O)=O)cc2)C(=O)C1=Cc1ccc(OCC(=O)Nc2ccccc2)cc1 [Compound 210]	10 to 20	–	< 10
COc1cc(C=C2C(=O)N(c3ccc(C(=O)O)cc3)N=C2c2ccc(F)cc2)ccc1OCc1ccccc1 [Compound 326]	< 40	–	< 10
CC1=NN(c2ccc(C(=O)O)cc2)C(=O)C1=Cc1ccc(OCCCN(C)C)cc1 [Compound 543]	< 10	–	< 10
COc1cc(C=C2C(=O)N(c3cccc4ccccc34)N=C2C)ccc1O [Compound 195]	10 to 20	–	< 10
CC1=NN(c2ccc(C(=O)O)cc2)C(=O)C1=Cc1ccc2[nH]ccc2c1 [Compound 349]	< 40	–	< 10
COc1ccc(C2=NN(c3ccc(C(=O)O)cc3)C(=O)/C2=C\c2ccc3ccccc3c2)cc1 [Compound 325]	< 10	< 10	–
O=C(O)c1ccc(N2N=C(c3ccoc3)/C(=C/c3ccc(CO)o3)C2=O)cc1 [Compound 247]	< 40	< 10	–
COc1cc(/C=C2\C(=O)N(c3ccccc3)N=C2Cc2ccccc2)ccc1OCc1ccccc1 [Compound 24]	< 40	10 to 20	–
CCCCC1=NN(c2ccc(C(=O)O)cc2)C(=O)/C1=C\c1ccc(N2CCC(CO)CC2)cc1 [Compound 443]	10 to 20	< 10	–
CC1=NN(c2ccc(S(N)(=O)=O)cc2)C(=O)/C1=C\c1ccc(OCC(=O)O)cc1 [Compound 214]	< 40	10 to 20	–
CCCCC1=NN(c2ccc(C(=O)O)cc2)C(=O)/C1=C\c1ccc(N2CCN(C)CC2)cc1 [Compound 340]	10 to 20	< 10	–
O=C(O)c1ccc(N2N=C(c3ccncc3)/C(=C/c3ccc(CO)o3)C2=O)cc1 [Compound 334]	< 40	< 10	–
CC1=NN(c2ccc(S(N)(=O)=O)cc2)C(=O)/C1=C\c1ccc(-n2cccn2)cc1 [Compound 150]	< 10	< 10	–
COC(=O)N1CCN(c2ccc(C=C3C(=O)N(c4ccccc4)N=C3Cc3ccccc3)cc2)CC1 [Compound 25]	< 40	–	10 to 20
COC(=O)N1CCN(c2ccc(/C=C3\C(=O)N(c4ccc(C(=O)O)cc4)N=C3c3ccc(OC)c(OC)c3)cc2)CC1 [Compound 279]	10 to 20	< 10	–
CCCCC1=NN(c2ccc(C(=O)O)cc2)C(=O)/C1=C\c1ccc(N2CCN(C(=O)OC)CC2)cc1 [Compound 298]	10 to 20	< 10	–
O=C(O)c1ccc(N2N=C(Cc3ccccc3)/C(=C/c3ccc(CO)o3)C2=O)cc1 [Compound 268]	< 40	10 to 20	–
COc1ccccc1-c1ccc(/C=C2\C(=O)N(c3ccc(C(=O)O)cc3)N=C2c2ccoc2)o1 [Compound 483]	10 to 20	< 10	–
